Seven compounds from patent US7560568B2, “Thiazole compounds” (SmithKline Beecham Corporation, priority 2004, dated 2009) can be followed below.

Where two headings read alike, the source gives them in different places.

The target of one assay is T1, PLK1 kinase domain (Homo sapiens, UniProt P53350).
T1 construct: made in house; host or cells: baculovirus infected T. ni cells
Kind of assay: Assay for Inhibition of PLK1 (SPA, 33P-ATP, His-tagged PLK kinase domain). It is filed as biochemical. Conditions: 2 nM PLK1 kinase domain, 1 μM ATP, 1.25 hrs at 22° C.; for IC50: read-out: Average pIC50 PLK Enzyme Inhibition (converted). As to the method: I. Assay for Inhibition of PLK1
A. Preparation of 6× N-terminal His-tagged PLK kinase domain 6× N-terminal His-tagged PLK kinase domain (amino acids 21-346 preceded by MKKGHHHHHHD (SEQ ID:NO. 1) may be prepared from baculovirus infected T. ni cells under polyhedrin promoter control. All subsequent procedures are performed at 4° C. Cells are lysed in 25 mM HEPES, 200 mM NaCl, 25 mM imidazole; pH 8.0. The homogenate is centrifuged at 14K rpm in a SLA-1500 rotor for 40 min and the supernatant filtered through a 1.2 micron filter. The supernatant is loaded onto a Nickel chelating Sepharose (Amersham Pharmacia) column and washed with 25 mM HEPES, 500 mM NaCl, 25 mM imidazole; pH 8.0. The column is then washed with a 16.6% B step where buffer B is 25 mM HEPES, 500 mM NaCl, 300 mM imidazole; pH 8.0. Protein is eluted using a 10-column volume linear gradient from 16.6% B to 100% B. Fractions were pooled using absorbance at 280 nm. PLK is concentrated using a 10 kDa molecular weight cutoff membrane and then loaded onto a Superdex 75 gel filtration (Amersham Pharmacia) column equilibrated in 25 mM HEPES, 1 mM DTT, 500 mM NaCl; pH 8.0. Protein was pooled by absorbance at 280 nm and then quality controlled using mass spectrometry and SDS-PAGE. PLK was aliquoted and stored at −80° C.
B. Enzyme activity +/− inhibitors was determined as follows: Compounds are added to the plate (1 μl in 100% DMSO). DMSO (5% final) and EDTA (62.5 mM final in 20 μL reaction) are used as controls. Reaction Mix is prepared as follows at 22° C.: • 25 mM HEPES, pH 7.2 • 15 mM MgCl2 • 1 μM ATP • 0.05 μCi/well ^33P-γ ATP (10 Ci/mMol) • 1 μM substrate peptide (Biotin-Ahx-SFNDTLDFD) SEQ ID:No. 2. • 0.15 mg/ml BSA • 1 mM DTT • 2 nM PLK1 kinase domain (added last)
Reaction Mix (20 μl) is added per well to each well immediately upon addition of enzyme and incubated 1.25 hrs. at 22° C. The enzymatic reactions are stopped with 50 μl of SPA bead/EDTA mix (50 mM EDTA, 4.0 mg/ml Streptavidin-coated SPA beads in Standard Dulbecco's PBS (without Mg^2+ and Ca^2+), 50 μM ATP). Plates are sealed with clear plastic seals, spun at 500×g for 1 min. or settled overnight, and plates counted in Packard TopCount for 30 seconds/well.
In Table 1, +=pIC50<5; ++=pIC50 5-7; +++=pIC50>7.

Assay [1] deals with H460 lung tumor cell line. Kind of assay: Methylene Blue Growth Inhibition Assay, H460. It counts as cell-based, human. As to conditions: H460, 3 days, read-out: MeB Cell Line IC50. The protocol:
(§1) II. Methylene Blue Growth Inhibition Assay
(§2) Normal Human foreskin fibroblasts (HFF) and human colon (HCT116, RKO), lung (H460), prostate (PC3), and breast tumor (MCF7) cell lines are cultured in high glucose DMEM (Life Technologies) containing 10% fetal bovine serum (FBS) at 37° C. in a humidified 10% CO2, 90% air incubator. Cells are harvested using trypsin/EDTA, counted using a haemocytometer, and plated in 100 μl of the appropriate media, at the following densities, in a 96-well tissue culture plate (Falcon 3075): HFF 5,000 cells/well, HCT116 3,000 cells/well, RKO 2,500 cells/well, H460 2,000 cells/well, PC3 8,000 cells/well, MCF7 4,000 cells/well. The next day, compounds are diluted in DMEM containing 100 μg/ml gentamicin, at twice the final required concentration, from 10 mM stock solutions in DMSO. 100 μl/well of these dilutions are added to the 100 μl of media currently on the cell plates. Medium containing 0.6% DMSO is added to control wells. Compounds diluted in DMEM are added to all cell lines. The final concentration of DMSO in all wells is 0.3%. Cells are incubated at 37° C., 10% CO2 for 3 days. Medium is removed by aspiration. Cell biomass is estimated by staining cells with 80 μl per well methylene blue (Sigma M9140, 0.5% in 50:50 ethanol:water), and incubation at room temperature for at least 30 minutes. Stain is removed, and the plates rinsed by immersion in water, and air-dried. To release stain from the cells 100 μl of solubilization solution is added (1% N-lauroyl sarcosine, Sodium salt, Sigma L5125, in PBS), and plates are left at room temperature for about 30 minutes. Optical density at 620 nm is measured on a microplate reader. Percent inhibition of cell growth is calculated relative to vehicle treated control wells. Concentration of compound that inhibits 50% of cell growth (IC50) is interpolated using nonlinear regression (Levenberg-Marquardt) and the equation, y=Vmax*(1−(x/(K+x)))+Y2, where Y2=0 and “K” is equal to the IC50.
(§3) In Table 1, +=10−>30 μM; ++=1-10 μM: +++=<1 μM.

Assay [2] deals with HCT116 colon tumor cell line. Kind of assay: Methylene Blue Growth Inhibition Assay, HCT116. Conditions: HCT116, 3 days, read-out: MeB Cell Line IC50. It is filed as cell-based, human. The protocol: as §1, §2, §3
In assay [3] the test system is Normal Human foreskin fibroblasts (HFF). Kind of assay: Methylene Blue Growth Inhibition Assay, HFF. Conditions: 3 days, read-out: MeB Cell Line IC50. It counts as cell-based. The protocol:
as §1, §2, §3

In assay [4] the test system is MCF7 breast tumor cell line. Nature of the assay: Methylene Blue Growth Inhibition Assay, MCF7. It counts as cell-based, human. Conditions: MCF7, 3 days, read-out: MeB Cell Line IC50. The protocol: as §1, §2, §3
Assay [5] has as its system PC3 prostate tumor cell line. Nature of the assay: Methylene Blue Growth Inhibition Assay, PC3. It is filed as cell-based, human. Conditions: PC3, 3 days, read-out: MeB Cell Line IC50. As to the method: as §1, §2, §3
Assay [6] concerns RKO colon tumor cell line. Nature of the assay: Methylene Blue Growth Inhibition Assay, RKO. As to conditions: 3 days, read-out: MeB Cell Line IC50. It is filed as cell-based, human. As to the method: as §1, §2, §3

T1 sequence (P53350 21-346): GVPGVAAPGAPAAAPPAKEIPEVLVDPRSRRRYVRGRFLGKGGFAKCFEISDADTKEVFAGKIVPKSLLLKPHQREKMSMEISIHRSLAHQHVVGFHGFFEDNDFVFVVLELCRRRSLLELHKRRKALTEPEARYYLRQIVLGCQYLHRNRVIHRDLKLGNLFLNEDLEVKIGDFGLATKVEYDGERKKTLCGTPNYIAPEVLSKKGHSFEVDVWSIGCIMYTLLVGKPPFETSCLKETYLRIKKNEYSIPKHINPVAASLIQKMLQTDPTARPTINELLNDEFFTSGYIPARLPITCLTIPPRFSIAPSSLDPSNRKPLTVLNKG

For the compound `COc1cc2ncn(-c3nc(OCc4ccccc4C(F)(F)F)c(C(N)=O)s3)c2cc1OC` [Example 6, 2-[5,6-Bis(methyloxy)-1H-benzimidazol-1-yl]-4-({[2-(trifluoromethyl)phenyl]-methyl}oxy)-1,3-thiazole-5-carboxamide], the IC50 is under 0.1 µM on PLK1 kinase domain; 1 to 10 µM in assay [1] (Homo sapiens, NCI-H460, 72 h); 1 to 10 µM in assay [2] (Homo sapiens, HCT-116, 72 h); over 10 µM in assay [3] (Homo sapiens, 72 h); 1 to 10 µM in assay [4] (Homo sapiens, 72 h); 1 to 10 µM in assay [5] (Homo sapiens, 72 h). Further, the IC50 in assay [6] (Homo sapiens, 72 h) is 1 to 10 µM.

Take `NC(=O)c1sc(-n2cnc3ccccc32)nc1OCc1ccccc1C(F)(F)F` [Example 1, 2-(1H-Benzimidazol-1-yl)-4-({[2-(trifluoromethyl)phenyl]methyl}-oxy)-1,3-thiazole-5-carboxamide]: the IC50 at PLK1 kinase domain is under 0.1 µM; in assay [1] (Homo sapiens, NCI-H460, 72 h), over 10 µM; in assay [2] (Homo sapiens, HCT-116, 72 h) it was over 10 µM; in assay [3] (Homo sapiens, 72 h), over 10 µM; in assay [4] (Homo sapiens, 72 h), over 10 µM; in assay [5] (Homo sapiens, 72 h) it was over 10 µM. Besides, the IC50 in assay [6] (Homo sapiens, 72 h) is over 10 µM.

Take `NC(=O)c1sc(-n2cnc3ccc(Cl)cc32)nc1OCc1ccccc1C(F)(F)F` [Example 2A, 2-(6-Chloro-1H-benzimidazol-1-yl)-4-({[2-(trifluoromethyl)phenyl]methyl}oxy)-1,3-thiazole-5-carboxamide]: the IC50 was under 0.1 µM on PLK1 kinase domain; over 10 µM in assay [1] (Homo sapiens, NCI-H460, 72 h); over 10 µM in assay [2] (Homo sapiens, HCT-116, 72 h); over 10 µM in assay [3] (Homo sapiens, 72 h); 1 to 10 µM in assay [4] (Homo sapiens, 72 h); over 10 µM in assay [5] (Homo sapiens, 72 h). Besides, in assay [6] (Homo sapiens, 72 h), the IC50 fell in the range of 1 to 10 µM.

In the case of “2-(6-Methoxy-1H-benzimidazol-1-yl)-4-({[2-(trifluoromethyl)phenyl]methyl}oxy)-1,3-thiazole-5-carboxamide and 2-(5-methoxy-1H-benzimidazol-1-yl)-4-({[2-(trifluoromethyl)phenyl]methyl}oxy)-1,3-thiazole-5-carboxamide [Example 3]”, on PLK1 kinase domain, the “Average pIC50 PLK Enzyme Inhibition” value is “+++ (+++=pIC50>7)”. In addition, the IC50 in assay [1], in assay [2], in assay [3], in assay [4], in assay [5] and in assay [6] was over 10 µM in each case.

Turning to `NC(=O)c1sc(-n2cnc3cc(Cl)ccc32)nc1OCc1ccccc1C(F)(F)F` [Example 2B, 2-(5-chloro-1H-benzimidazol-1-yl)-4-({[2-(trifluoromethyl)phenyl]methyl}oxy)-1,3-thiazole-5-carboxamide], the IC50 at PLK1 kinase domain is 0.1 to 10 µM; in assay [1] (Homo sapiens, NCI-H460, 72 h) it was over 10 µM; in assay [2] (Homo sapiens, HCT-116, 72 h) it was over 10 µM; in assay [3] (Homo sapiens, 72 h), over 10 µM; in assay [4] (Homo sapiens, 72 h) it was over 10 µM; in assay [5] (Homo sapiens, 72 h), over 10 µM. The IC50 in assay [6] (Homo sapiens, 72 h) was over 10 µM.

On to `Cc1cc2ncn(-c3nc(OCc4ccccc4C(F)(F)F)c(C(N)=O)s3)c2cc1C` [Example 5, 2-(5,6-Dimethyl-1H-benzimidazol-1-yl)-4-({[2-(trifluoromethyl)phenyl]methyl}oxy)-1,3-thiazole-5-carboxamide], for which the IC50 was 0.1 to 10 µM at PLK1 kinase domain; over 10 µM in assay [1] (Homo sapiens, NCI-H460, 72 h); over 10 µM in assay [2] (Homo sapiens, HCT-116, 72 h); over 10 µM in assay [3] (Homo sapiens, 72 h); over 10 µM in assay [4] (Homo sapiens, 72 h); over 10 µM in assay [5] (Homo sapiens, 72 h). The IC50 in assay [6] (Homo sapiens, 72 h) is over 10 µM.

Consider `NC(=O)c1sc(-n2cnc3ccc(F)cc32)nc1OCc1ccccc1C(F)(F)F` [Example 4, 2-(6-Fluoro-1H-benzimidazol-1-yl)-4-({[2-(trifluoromethyl)phenyl]methyl}oxy)-1,3-thiazole-5-carboxamide], for which the IC50 on PLK1 kinase domain was 0.1 to 10 µM; in assay [1] (Homo sapiens, NCI-H460, 72 h), over 10 µM; in assay [2] (Homo sapiens, HCT-116, 72 h) it was over 10 µM; in assay [3] (Homo sapiens, 72 h) it was over 10 µM; in assay [4] (Homo sapiens, 72 h), over 10 µM; in assay [5] (Homo sapiens, 72 h) it was over 10 µM. Besides, the IC50 in assay [6] (Homo sapiens, 72 h) was over 10 µM.
